Here are results for one molecule from patent US20200108008A1, “OLAPARIB ORAL SUSTAINED AND CONTROLLED RELEASE PHARMACEUTICAL COMPOSITION AND USES THEREOF” (SHANGHAI INSTITUTE OF MATERIA MEDICA, CHINESE ACADEMY OF …, priority 2016, published 2020).

A short description of the data set: Dissolution of olaparib solid dispersion versus olaparib compound powder in water under sink conditions. To be noted: 37° C., 100 rpm. It counts as physicochemical. The method, then:
A solid dispersion was prepared from Olaparib and copolyvidone VA64 by solvent evaporation. That is, olaparib and copolyvidone VA64 were simultaneously dissolved in ethanol/acetone (25/75, v/v), evaporated off the organic solvent under reduced pressure, dried in a vacuum drying oven, and ground and pulverized through a 60 mesh screen to be ready for tableting. For the obtained solid dispersion, in water under sink conditions at 37° C. and 100 rpm, the pharmaceutically active ingredient was dissolved out 90% or more in 30 min. However, under the same conditions, the olaparib compound powder was dissolved out less than 60% in 2h.

Regarding `O=C(c1cc(Cc2n[nH]c(=O)c3ccccc23)ccc1F)N1CCN(C(=O)C2CC2)CC1` [olaparib compound powder, 1-(cyclopropylcarboxyl)-4-[5-[(3,4-dihydro-4-oxo-1-phthalazinyl)methyl]-2-fluorobenzoyl]piperazine], the “dissolved out in 2h” value is “less than 60%”.
